In paper PMC3747596 (PLoS ONE, 2013):
Where two headings read alike, the source gives them in different places.

Tests used:
α2A = target: T1, α2A (Homo sapiens, UniProt P08913); experiment: Radioligand displacement, α2A
T1 sequence (P08913 1-465): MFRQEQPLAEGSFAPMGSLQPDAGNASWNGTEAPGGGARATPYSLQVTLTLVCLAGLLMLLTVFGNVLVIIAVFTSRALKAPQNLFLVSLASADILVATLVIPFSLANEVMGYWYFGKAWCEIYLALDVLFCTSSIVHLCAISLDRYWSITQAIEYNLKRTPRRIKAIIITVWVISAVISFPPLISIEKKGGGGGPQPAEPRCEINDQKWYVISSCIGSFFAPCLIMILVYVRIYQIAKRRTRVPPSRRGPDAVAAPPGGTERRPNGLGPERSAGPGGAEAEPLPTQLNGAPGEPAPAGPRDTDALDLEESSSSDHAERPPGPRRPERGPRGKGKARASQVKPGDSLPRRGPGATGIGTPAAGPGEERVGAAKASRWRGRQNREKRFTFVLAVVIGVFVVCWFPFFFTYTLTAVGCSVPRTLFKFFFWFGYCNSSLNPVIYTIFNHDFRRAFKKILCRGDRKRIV

GABAA = experiment: Radioligand displacement, GABAA; type: binding; details: [3H] radioligand Muscimol; Rat, forebrain
5-HT1a = target: T2, 5-HT1a (Homo sapiens, UniProt P08908); experiment: Radioligand displacement, 5-HT1a; type: binding
T2 sequence (P08908 1-422): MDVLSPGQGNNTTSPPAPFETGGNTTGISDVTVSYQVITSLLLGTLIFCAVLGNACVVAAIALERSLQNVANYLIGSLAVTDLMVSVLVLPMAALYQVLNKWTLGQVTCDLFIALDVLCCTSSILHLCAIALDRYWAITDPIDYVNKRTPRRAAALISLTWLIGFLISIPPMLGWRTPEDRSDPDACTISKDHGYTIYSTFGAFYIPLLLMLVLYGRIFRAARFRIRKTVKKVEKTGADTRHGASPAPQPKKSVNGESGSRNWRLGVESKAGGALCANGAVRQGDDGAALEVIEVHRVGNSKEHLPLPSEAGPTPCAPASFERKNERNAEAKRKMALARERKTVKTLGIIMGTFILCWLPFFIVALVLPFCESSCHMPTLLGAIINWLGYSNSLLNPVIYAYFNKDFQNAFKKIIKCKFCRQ

5-HT2a = 5-HT2a (Homo sapiens, UniProt P28223); experiment: Radioligand displacement, 5-HT2a; type: binding
α2B = target: T3, α2B (Homo sapiens, UniProt P18089); experiment: Radioligand displacement, α2B; type: binding
T3 sequence (P18089 1-450): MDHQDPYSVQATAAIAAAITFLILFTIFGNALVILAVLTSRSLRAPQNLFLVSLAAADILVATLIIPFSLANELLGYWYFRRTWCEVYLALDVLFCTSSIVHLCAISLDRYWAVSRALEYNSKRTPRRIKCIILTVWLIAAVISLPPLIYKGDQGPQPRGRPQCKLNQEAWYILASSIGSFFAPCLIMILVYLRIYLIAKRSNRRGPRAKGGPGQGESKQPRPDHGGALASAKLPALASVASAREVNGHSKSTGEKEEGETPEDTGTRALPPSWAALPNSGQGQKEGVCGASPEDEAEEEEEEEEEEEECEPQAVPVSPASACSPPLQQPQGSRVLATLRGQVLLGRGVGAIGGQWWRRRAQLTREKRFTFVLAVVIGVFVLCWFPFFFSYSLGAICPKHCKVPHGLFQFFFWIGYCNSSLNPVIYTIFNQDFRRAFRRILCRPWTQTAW

D5 = D5 (Homo sapiens, UniProt P21918); experiment: Radioligand displacement, D5; type: binding
M3 = M3 (Homo sapiens, UniProt P20309); experiment: Radioligand displacement, M3; type: binding
σ2 = target: T4, σ2 (Rattus norvegicus, UniProt Q5U3Y7); experiment: Radioligand displacement, σ2; type: binding
T4 sequence (Q5U3Y7 1-176): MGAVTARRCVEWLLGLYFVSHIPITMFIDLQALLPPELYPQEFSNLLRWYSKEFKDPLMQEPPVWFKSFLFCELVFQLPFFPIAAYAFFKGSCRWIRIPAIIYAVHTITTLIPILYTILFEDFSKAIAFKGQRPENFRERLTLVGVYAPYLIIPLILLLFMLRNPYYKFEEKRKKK

[1] = target: T5, α1A-adrenoceptor (α1A-AR) (Homo sapiens, UniProt P35348); experiment: Radioligand displacement, α1A; type: binding
T5 sequence (P35348 1-466): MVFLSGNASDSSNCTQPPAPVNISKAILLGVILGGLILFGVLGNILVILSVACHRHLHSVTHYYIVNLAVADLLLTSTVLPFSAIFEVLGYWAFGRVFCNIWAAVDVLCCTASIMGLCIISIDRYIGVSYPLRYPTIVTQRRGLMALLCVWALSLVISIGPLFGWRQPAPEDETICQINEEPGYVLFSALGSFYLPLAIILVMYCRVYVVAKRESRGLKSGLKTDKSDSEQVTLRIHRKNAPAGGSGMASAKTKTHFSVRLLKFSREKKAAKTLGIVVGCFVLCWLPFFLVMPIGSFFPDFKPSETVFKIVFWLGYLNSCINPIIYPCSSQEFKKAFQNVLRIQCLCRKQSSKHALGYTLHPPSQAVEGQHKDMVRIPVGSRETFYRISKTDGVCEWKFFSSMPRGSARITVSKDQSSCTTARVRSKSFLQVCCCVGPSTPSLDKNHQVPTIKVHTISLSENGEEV

[2] = target: noradrenaline (norepinephrine) transporter (NET) (Homo sapiens, UniProt P23975); experiment: Radioligand displacement, NET; type: binding
[3] = [3H] radioligand 8-OH-DPAT, Human, Cloned
[4] = [3H] radioligand Rauwolscine, Human, Cloned
[5] = K i, D5, radioligand displacement (Table 1)
[6] = Ki, [3H] radioligand SCH23390, Human, Cloned
[7] = Ki, [3H] radioligand Prazosin, Human, Cloned

Chain of 5-HT2a (P28223 whole entry): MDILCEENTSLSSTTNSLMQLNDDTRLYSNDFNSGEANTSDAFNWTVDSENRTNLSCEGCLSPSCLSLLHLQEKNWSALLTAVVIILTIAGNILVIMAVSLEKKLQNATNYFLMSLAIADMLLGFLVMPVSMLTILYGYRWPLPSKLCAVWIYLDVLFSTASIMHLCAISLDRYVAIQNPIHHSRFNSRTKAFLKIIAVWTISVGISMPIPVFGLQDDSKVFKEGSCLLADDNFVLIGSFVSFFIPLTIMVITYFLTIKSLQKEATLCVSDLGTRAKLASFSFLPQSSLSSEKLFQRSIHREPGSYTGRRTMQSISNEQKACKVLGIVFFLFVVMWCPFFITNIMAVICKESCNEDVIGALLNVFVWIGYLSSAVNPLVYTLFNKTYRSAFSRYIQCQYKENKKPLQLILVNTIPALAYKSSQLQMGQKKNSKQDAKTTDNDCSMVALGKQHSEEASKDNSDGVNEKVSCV
Chain of M3 (P20309 whole entry): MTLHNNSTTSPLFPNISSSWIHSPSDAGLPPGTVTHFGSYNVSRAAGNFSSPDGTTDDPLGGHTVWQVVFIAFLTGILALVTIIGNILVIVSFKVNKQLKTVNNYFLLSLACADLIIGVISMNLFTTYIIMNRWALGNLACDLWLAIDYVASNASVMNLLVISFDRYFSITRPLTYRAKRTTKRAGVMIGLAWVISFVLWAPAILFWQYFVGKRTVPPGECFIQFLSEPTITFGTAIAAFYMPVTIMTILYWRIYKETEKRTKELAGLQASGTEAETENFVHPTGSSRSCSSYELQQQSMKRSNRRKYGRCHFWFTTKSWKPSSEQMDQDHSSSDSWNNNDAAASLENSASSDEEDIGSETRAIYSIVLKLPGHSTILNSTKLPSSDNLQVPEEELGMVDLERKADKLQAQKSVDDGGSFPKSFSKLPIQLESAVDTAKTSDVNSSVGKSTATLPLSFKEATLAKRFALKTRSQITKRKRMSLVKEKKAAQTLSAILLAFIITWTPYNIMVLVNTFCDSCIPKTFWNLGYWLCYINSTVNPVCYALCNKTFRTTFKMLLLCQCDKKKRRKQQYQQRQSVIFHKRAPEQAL
Chain of noradrenaline (norepinephrine) transporter (NET) (P23975 whole entry): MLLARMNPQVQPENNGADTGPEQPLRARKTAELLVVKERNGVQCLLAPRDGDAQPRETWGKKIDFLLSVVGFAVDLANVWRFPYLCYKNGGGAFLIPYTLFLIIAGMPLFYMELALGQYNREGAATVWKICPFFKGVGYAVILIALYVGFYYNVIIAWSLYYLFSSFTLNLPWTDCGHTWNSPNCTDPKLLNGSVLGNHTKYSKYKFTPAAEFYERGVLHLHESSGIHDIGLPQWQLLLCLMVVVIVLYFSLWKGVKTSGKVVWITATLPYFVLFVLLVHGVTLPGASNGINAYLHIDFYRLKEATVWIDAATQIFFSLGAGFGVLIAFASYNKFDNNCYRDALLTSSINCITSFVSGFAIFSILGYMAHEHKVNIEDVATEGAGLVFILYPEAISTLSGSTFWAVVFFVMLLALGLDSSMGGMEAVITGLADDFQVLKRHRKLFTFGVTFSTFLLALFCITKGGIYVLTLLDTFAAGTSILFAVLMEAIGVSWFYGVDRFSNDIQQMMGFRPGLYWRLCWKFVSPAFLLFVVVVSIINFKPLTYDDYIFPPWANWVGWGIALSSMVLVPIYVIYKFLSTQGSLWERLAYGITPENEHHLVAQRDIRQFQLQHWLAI
Chain of D5 (P21918 whole entry): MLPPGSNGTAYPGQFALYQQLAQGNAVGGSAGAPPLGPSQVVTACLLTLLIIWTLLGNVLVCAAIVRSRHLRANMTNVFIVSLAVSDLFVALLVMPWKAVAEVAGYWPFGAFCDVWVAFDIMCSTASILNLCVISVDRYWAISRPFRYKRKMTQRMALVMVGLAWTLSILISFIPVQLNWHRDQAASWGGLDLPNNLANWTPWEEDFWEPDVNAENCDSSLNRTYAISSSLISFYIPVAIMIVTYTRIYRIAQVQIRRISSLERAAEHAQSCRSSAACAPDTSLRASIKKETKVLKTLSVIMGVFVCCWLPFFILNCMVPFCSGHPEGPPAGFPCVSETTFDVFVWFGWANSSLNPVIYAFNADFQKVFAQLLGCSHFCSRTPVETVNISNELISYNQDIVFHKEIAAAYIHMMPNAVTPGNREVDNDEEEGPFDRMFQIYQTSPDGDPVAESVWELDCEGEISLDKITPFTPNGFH

Compound	Ki (GABAA)	Ki (5-HT1a; [3])	Ki (5-HT2a)	Ki (α2B; [4])	Ki (D5; [5])	Ki (D5; [6])	Ki (M3)	Ki (σ2)	Ki [1, 7]	Ki [2]	further results
N=C(N)Nc1ccc2[nH]c3c(c2c1)C[C@@]1(O)[C@H]2Cc4ccc(O)c5c4[C@@]1(CCN2CC1CC1)[C@H]3O5 [GNTI, 5′-guanidinonaltrindole]	≥ 10 µM	≥ 10 µM	≥ 10 µM	≥ 10 µM	8.2 µM	8.18 µM	≥ 10 µM	≥ 10 µM	9.5 µM	≥ 10 µM	Ki (α2A; Ki, [3H] radioligand Rauwolscine, Human, Cloned): ≥ 10 µM; modulation of the displacement of [125I]HEAT by noradrenaline ([1]; 10 µM GNTI): did not detectably modulate; Ki ([1]; Ki, binding curve File S1, Alpha1A Receptor, [125I]HEAT (0.03 nM), for 14674 the curve marked old): 9.47 µM
CC(C)[C@@H](CN1CC[C@@](C)(c2cccc(O)c2)[C@@H](C)C1)NC(=O)[C@H]1Cc2ccc(O)cc2CN1 [JDTic]	≥ 10 µM	≥ 10 µM	–	≥ 10 µM	–	–	–	–	–	–	Ki (α2A): ≥ 10 µM; Ki (5-HT2a; [3H] radioligand Ketanserin, Human, Cloned, read-out: Ki): ≥ 10 µM; Ki (D5; [3H] radioligand SCH23390, Human, Cloned, read-out: Ki): ≥ 10 µM; Ki (M3; [3H] radioligand QNB, Human, Cloned, read-out: Ki): ≥ 10 µM; Ki (σ2; [3H] radioligand DTG, Rat, PC12, read-out: Ki): ≥ 10 µM; Ki ([1]; read-out: Ki): ≥ 10 µM; Ki ([2]; NET, versus [3H]nisoxetine (Table 1), read-out: K i): 0.054 µM
Oc1ccc2c3c1O[C@H]1c4[nH]c5c(c4C[C@@]4(O)[C@@H](C2)N(CC2CC2)CC[C@]314)C[C@@]1(O)[C@H]2Cc3ccc(O)c4c3[C@@]1(CCN2CC1CC1)[C@H]5O4 [nor-BNI, Nor-binaltorphimine]	≥ 10 µM	1.11 µM	≥ 10 µM	1.46 µM	3.9 µM	3.92 µM	≥ 10 µM	≥ 10 µM	≥ 10 µM	≥ 10 µM	Ki (α2A; K i, α2A, radioligand displacement (Table 1)): 4.9 µM; Ki (5-HT1a; 5-HT1a, radioligand displacement (Table 1)): 1.1 µM; Ki (5-HT1a; binding curve File S1, 5-HT1A Receptor, [3H]8-OH-DPAT (0.5 nM), Standard Binding Buffer): 1.11 µM; Ki (α2B; binding curve File S1, Alpha2B Receptor, [125I]Clonidine (0.12 nM), Alpha2 Binding Buffer): 1.46 µM; Ki (α2B; α2B, radioligand displacement (Table 1)): 1.5 µM; Ki (D5; Ki, binding curve File S1, Dopamine5 Receptor, [3H]SCH23390 (1.2 nM), Dopamine Binding Buffer): 3.92 µM
